Earlier results, collected in patent US20100183720A1, “Hetero-assembled hydrogels” (The Board of Trustees of the Leland Stanford Junior …, priority 2008, published 2010).

molecular target: T1, PABC Domain (Homo sapiens, UniProt P11940); details: SPR; read-out: Dissociation constant, Kd (SPR Kd)
T1 construct: PABC Domain
T1 sequence (P11940 542-619 limits assumed): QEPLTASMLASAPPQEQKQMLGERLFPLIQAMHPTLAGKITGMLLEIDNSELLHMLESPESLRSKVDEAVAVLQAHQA

Point of comparison: AFSRQLNVNAKPFVPNVHA, Kd 3.9 µM. Against it:
- AFSRQLNVNAKPFVPNVHAAEFVPSFLR — 3-fold lower, 1.3 µM
- AKPFVPNVHAAEFVPSFLR — within 1.5-fold, 3.1 µM
- LVVKSNLNPNAKEF — 67-fold higher, 260 µM
- LVVKSNLPNAKEFVP — within 1.5-fold, 3 µM
- SNLNPNAKEFVPGVKYG — 21-fold lower, 0.19 µM
- VLMSKLSVNAPEFYPSGYSSSY — 1.7-fold lower, 2.3 µM
- VVKSNLNPNAKEFVPGVKYGNI — 24-fold lower, 0.16 µM

molecular target: T2, SH3 Domain (Homo sapiens, UniProt P27986); details: read-out: Dissociation constant, Kd
T2 construct: SH3 Domain
T2 sequence (P27986 3-79 limits assumed): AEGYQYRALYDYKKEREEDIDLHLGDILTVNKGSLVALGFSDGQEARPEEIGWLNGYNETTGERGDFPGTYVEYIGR

Point of comparison: RKAPPRPSK, Kd 37 ± 1 µM. Against it:
- AKLPPRPSK — 2.6-fold higher, 98 ± 0.2 µM
- RALPPRPSK — 3.8-fold lower, 9.7 ± 0.2 µM
- RKLAPRPSK — 3.8-fold higher, 140 ± 10 µM
- RKLPARPSK — 2.2-fold lower, 16.5 ± 0.1 µM
- RKLPPAPSK — within 1.5-fold, 29 ± 2 µM
- RKLPPRASK — within 1.5-fold, 53 ± 6 µM
- RKLPPRP — 2.9-fold lower, 12.8 ± 0.6 µM
- RKLPPRPSK — 4.1-fold lower, 9.1 ± 0.6 µM
- RPLPPRPSK — 4.1-fold lower, 9.1 ± 0.6 µM

molecular target: T3, Human YAP65 (Yes kinase-associated protein) WW Domain (Homo sapiens, UniProt P46937); details: read-out: Dissociation constant, Kd (Binding constant)
T3 construct: WW Domain
T3 sequence (P46937 171-204 limits assumed): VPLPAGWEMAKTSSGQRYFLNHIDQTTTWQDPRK

Point of comparison: SPPPYTV, Kd 47 ± 6 µM. Against it:
- GTPPPPYTVG — within error, 52 ± 6 µM
- SAPPPYTV — within error, 53 ± 17 µM
- SPPPAYTV — within error, 63 ± 17 µM
- SPPPPFTV — 2.5-fold higher, 118 ± 17 µM

molecular target: T4, Human Tsg101 UEV domain (Homo sapiens, UniProt Q99816); details: read-out: Dissociation constant, Kd (Binding constant)
T4 construct: Human Tsg101 UEV domain
T4 sequence (Q99816 2-145 limits assumed): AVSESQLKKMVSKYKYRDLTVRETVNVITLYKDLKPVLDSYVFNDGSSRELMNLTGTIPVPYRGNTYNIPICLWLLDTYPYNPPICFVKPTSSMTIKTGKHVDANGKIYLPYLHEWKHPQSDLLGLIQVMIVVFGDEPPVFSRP

For “HIV-1 p6 protein: binding partner of Human Tsg101 UEV domain (LQSRPEPTAPPEESFRSGVETTTPPQKQEPIDKELYPLTSLRSLFGNDPSSQ; p6-gag; UniProt P04591 449-500, looked up)”, the Kd is listed as 27 ± 5 µM.

molecular target: T5, SH3 Domain PI3K (1 SH3 and 2 SH2) (Homo sapiens, UniProt P27986); details: read-out: Dissociation constant, Kd
T5 construct: SH3 Domain
T5 sequence (P27986 3-79 limits assumed): as the sequence (P27986 3-79 limits assumed) above

Point of comparison: RYLPPRPMY, Kd 13 µM. Against it:
- LNKPPLPKR — the same, 13 µM
- RALPPLPRY — within 1.5-fold, 17 µM
- RKLPPRPAF — within 1.5-fold, 11 µM
- RKLPPRPSK — within 1.5-fold, 9.1 µM

molecular target: T6, SH3 Domain cSRC (1 SH3 and 1 SH2) (Gallus gallus, UniProt P00523); details: read-out: Dissociation constant, Kd
T6 construct: SH3 Domain

Point of comparison: RKLPPRPSK, Kd 73 µM. Against it:
- PYHPPLPRR — 5.6-fold lower, 13 µM
- RELPPIPVF — 7.6-fold lower, 9.6 µM
- RELPPLPRF — 9.4-fold lower, 7.8 µM
- RPLPPTPKY — 6.1-fold lower, 12 µM

molecular target: model group I polyproline peptide; details: monomeric units of WW domain bound to model group I polyproline peptide; read-out: apparent dissociation constant

In the case of “Nedd4.3: wild-type WW domain sequence (Protein Data Bank 1I5H), monomeric unit (PLPPGWEERTHTDGRVFFINHNIKKTQWEDPRMQ; Natural WW domain also called Nedd4.3 Kanelis, V., Rotin D. & Forman-Kay, JD (2001) Solution structure of a Nedd4 WW domain-ENaC peptide complex, Nat Struct Biol 8 407-12.)”, the Kd is given as 11.2 ± 1.2 µM.
